Here are results for 13 compounds from patent publication US12559504B2, “Benzotriazole derivative” (UBE CORPORATION, priority 2019, dated 2026).

In data set [1] the test system is NQO1. Briefly: NQO1 enzyme induction test (in vitro) in Hepa1c1c7 cells. Particulars: Mus musculus, Hepa-1c1c7, 48 h, concentration to elevate the NQO1 activity by 1.5 times, about 48 hours, read-out: EC150. Type of data set: cell-based. An outline of the steps: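 Mouse Hepa1c1c7 cells treated about 48 h with compound (0.1% DMSO final), then lysed. NQO1 activity read as MTT reduction at 540 nm with menadione substrate, 5 min at room temperature, and corrected for cell number by CellTiter-Glo. EC150 is the concentration raising NQO1 activity 1.5-fold.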

Data set [2] deals with NQO1. Nature of the data set: NQO1 expression induction test in mouse kidney (single administration). Type of data set: in vivo. Particulars: Mus musculus, po, 6 h, BALB/c mouse kidney, 6 hours after administration, ratio to control group. An outline of the steps: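 Female BALB/c mice received a single oral dose of compound in 0.5% methylcellulose, with untreated mice as controls. Six hours later, left-kidney NQO1 mRNA was measured by SYBR real-time RT-PCR normalised to GAPDH. Induction was expressed as the ratio of mean treated to mean control expression.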

The target of data set [3] is T1, GST fusion human Keap1 (amino acid residue: 325-624) protein (Homo sapiens, UniProt Q14145).
T1 construct: GST fusion human Keap1 (amino acid residue: 325-624) protein; purchased Protein tech Ag0779
Nature of the data set: Keap1-Nrf2 binding inhibition test (fluorescence polarization). Particulars: compound concentration of 100 nM; read-out: inhibition rate. An outline of the steps:
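Fluorescence polarization with FITC-labelled Nrf2 peptide (FITC-Ahx-LDEETGEFL-NH2) and GST-human Keap1 (325-624) in 20 mM Tris pH 7.5, 150 mM NaCl, 0.05% Tween 20, 5 mM DTT, BSA; 30 min at room temperature, ex 482/em 530 nm. Percent inhibition at 100 nM compound, Keap1-free wells = 100%.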

Data set [4] in a line: Metabolism test using human liver microsome fractions. Type of data set: in vitro ADME. As to conditions: human liver microsomes, test compound 10 μmol/L, NADPH and UDP-glucuronic acid, 37° C. An outline of the steps: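 Human or monkey liver microsomes (1 mg protein) with NADPH-regenerating system plus UDP-glucuronic acid/UGT mix, 37 °C; compound at 10 μmol/L final. Samples at 0–30 min quenched in acetonitrile, UV-HPLC; elimination rate (pmol/min/mg-P) from linear slope of residual amount over time.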

T1 sequence (Q14145 325-624): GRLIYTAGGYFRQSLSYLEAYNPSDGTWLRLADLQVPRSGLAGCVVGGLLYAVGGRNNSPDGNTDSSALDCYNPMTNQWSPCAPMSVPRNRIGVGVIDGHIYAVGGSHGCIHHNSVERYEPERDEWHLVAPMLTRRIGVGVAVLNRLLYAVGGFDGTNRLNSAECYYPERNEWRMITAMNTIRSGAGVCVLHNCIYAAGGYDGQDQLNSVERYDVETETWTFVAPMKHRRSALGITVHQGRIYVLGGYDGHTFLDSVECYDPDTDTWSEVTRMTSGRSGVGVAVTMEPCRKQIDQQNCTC

For the compound `CC[C@@H]1CN(Cc2cc(C(c3ccc4c(nnn4C)c3C)C3(C(=O)O)CCC3)ccc2C)Cc2cc3ncccc3cc2O1` (stereo partly drawn) [Example 84-(b), 1-((1,4-dimethyl-1H-benzo[d][1,2,3]triazol-5-yl) (3-(((R)-2-ethyl-2,3-dihydro-[1,4]oxazepino[7,6-g]quinolin-4 (5H)-yl)methyl)-4-methylphenyl)methyl)cyclobutane-1-carboxylic Acid], the EC (1.5-fold NQO1 activity) in data set [1] fell in the range of 0.0005 to 0.005 µM. In data set [2], the fold induction at 20 mg/kg was greater than 6. In data set [3], the inhibition at 0.1 µM was no less than 50%. Moreover, in data set [4], the Human metabolic rate result is “C (150≤metabolic rate<200 pmol/min/mg protein)”.

On to `CC[C@@H]1CN(Cc2cc(C(c3ccc4c(nnn4C)c3C)C(C)(C)C(=O)O)ccc2C)Cc2cc(F)c3ccccc3c2O1` (stereo partly drawn) [Example 49-(b), 3-(1,4-dimethyl-1H-benzo[d](1,2, 3)triazol-5-yl)-3-(3-(((R)-2-ethyl-7-fluoro-2,3-dihydronaphtho[2,1-f][1,4]oxazepin-4 (5H)-yl)methyl)-4-methylphenyl)-2,2-dimethylpropanoic Acid], for which the EC (1.5-fold NQO1 activity) in data set [1] fell in the range of 0.0005 to 0.005 µM. The fold induction at 30 mg/kg in data set [2] was greater than 6. The inhibition at 0.1 µM in data set [3] is no less than 50%. Further, the Human metabolic rate result in data set [4] is on record as “B (100≤metabolic rate<150 pmol/min/mg protein)”.

As for `CC[C@@H]1CN(Cc2cc(C(c3ccc4c(nnn4C)c3C)C(C)(C)C(=O)O)ccc2C)Cc2ccc3c(c2O1)CCC3` (stereo partly drawn) [Example 6-(b), 3-(1,4-dimethyl-1H-benzo[d][1,2,3]triazol-5-yl)-3-(3-(((R)-2-ethyl-2,3,5,8,9,10-hexahydro-4H-indeno[5,4-f][1,4]oxazepin-4-yl)methyl)-4-methylphenyl)-2,2-dimethylpropanoic Acid], the EC (1.5-fold NQO1 activity) in data set [1] was 0.005 to 0.05 µM. The fold induction at 30 mg/kg in data set [2] is 3 to 6. Moreover, the inhibition at 0.1 µM in data set [3] was no less than 50%. Besides, the Human metabolic rate entry in data set [4] is reported as “B (100≤metabolic rate<150 pmol/min/mg protein)”.

For `CC[C@@H]1CN(Cc2cc(C(c3ccc4c(nnn4C)c3C)C(C)(C)C(=O)O)ccc2C)Cc2ccc3cnccc3c2O1.O=C(O)C(F)(F)F.O=C(O)C(F)(F)F` (stereo partly drawn) [Example 55-(b), 3-(1,4-dimethyl-1H-benzo[d][1,2,3]triazol-5-yl)-3-(3-(((R)-2-ethyl-2,3-dihydro-[1,4]oxazepino[7,6-f]isoquinolin-4(5H)-yl)methyl)-4-methylphenyl)-2,2-dimethylpropanoic Acid Ditrifluoroacetate], the EC (1.5-fold NQO1 activity) in data set [1] lay within 0.0005 to 0.005 µM. For the same compound, the fold induction at 30 mg/kg in data set [2] was no more than 3. In addition, the inhibition at 0.1 µM in data set [3] is no less than 50%. For the same compound, the Human metabolic rate entry in data set [4] was “C (150≤metabolic rate<200 pmol/min/mg protein)”.

Turning to `CC[C@@H]1CN(Cc2cc(C(c3ccc4c(nnn4C)c3C)C(C)(C)C(=O)O)ccc2Cl)Cc2cc3ncccc3cc2O1` (stereo partly drawn) [Example 80-(b), 3-(4-chloro-3-(((R)-2-ethyl-2,3-dihydro-[1,4]oxazepino[7,6-g]quinolin-4 (5H)-yl)methyl)phenyl)-3-(1,4-dimethyl-1H-benzo[d][1,2, 3]triazol-5-yl)-2,2-dimethylpropanoic Acid], the EC (1.5-fold NQO1 activity) in data set [1] lay in the range of 0.005 to 0.05 µM. In data set [2], the fold induction at 20 mg/kg was greater than 6. Further, in data set [3], the inhibition at 0.1 µM is no less than 50%. The Human metabolic rate result in data set [4] is on record as “D (200≤metabolic rate<250 pmol/min/me protein)”.

Consider `Cc1ccc(C(c2ccc3c(nnn3C)c2C)C(C)(C)C(=O)O)cc1CN1Cc2cc3ncccc3cc2OC(C)(C)C1` (stereo not shown) [Example 60-(b), 3-(1,4-dimethyl-1H-benzo[d][1,2,3]triazol-5-yl)-3-(3-((2,2-dimethyl-2,3-dihydro-[1,4]oxazepino[7,6-g]quinolin-4 (5H)-yl)methyl)-4-methylphenyl)-2,2-dimethylpropanoic Acid], for which the EC (1.5-fold NQO1 activity) in data set [1] was in the range of 0.0005 to 0.005 µM. In addition, in data set [2], the fold induction at 30 mg/kg was no more than 3. Also, the inhibition at 0.1 µM in data set [3] was no less than 50%. In data set [4], the Human metabolic rate entry is “D (200≤metabolic rate<250 pmol/min/me protein)”.

Consider `CC[C@@H]1CN(Cc2cc(C(c3ccc4c(nnn4C)c3C)C(C)(C)C(=O)O)ccc2C)Cc2cc3c(cnn3C)cc2O1` (stereo partly drawn) [Example 65-(b), 3-(1,4-dimethyl-1H-benzo[d][1,2,3]triazol-5-yl)-3-(3-(((R)-6-ethyl-1-methyl-1,6,7,9-tetrahydro-8H-[1,4]oxazepino[7,6-f]indazol-8-yl)methyl)-4-methylphenyl)-2,2-dimethylpropanoic Acid], for which, in data set [1], the EC (1.5-fold NQO1 activity) was in the range of 0.0005 to 0.005 µM. For the same compound, the fold induction at 20 mg/kg in data set [2] was 3 to 6. In addition, in data set [3], the inhibition at 0.1 µM is no less than 50%. In addition, the Human metabolic rate entry in data set [4] is given as “D (200≤metabolic rate<250 pmol/min/me protein)”.

Consider `CC[C@@H]1CN(Cc2cc(C(c3ccc4c(nnn4C)c3C)C(C)(C)C(=O)O)ccc2C)Cc2cc3c(cc2O1)CCCC3` (stereo partly drawn) [Example 4-(b), 3-(1,4-dimethyl-1H-benzo[d][1,2,3]triazol-5-yl)-3-(3-(((R)-2-ethyl-2,3,7,8,9,10-hexahydronaphtho[2,3-f][1,4]oxazepin-4(5H)-yl)methyl)-4-methylphenyl)-2,2-dimethylpropanoic Acid], for which the EC (1.5-fold NQO1 activity) in data set [1] lay in the range of 0.005 to 0.05 µM. Also, the fold induction at 30 mg/kg in data set [2] is greater than 6. In addition, the inhibition at 0.1 µM in data set [3] is no less than 50%. Further, the Human metabolic rate result in data set [4] is listed as “B (100≤metabolic rate<150 pmol/min/mg protein)”.

As to `CC[C@@H]1CN(Cc2cc(C(c3ccc4c(nnn4C)c3C)C(C)(C)C(=O)O)ccc2C)Cc2cnc3ccccc3c2O1` (stereo partly drawn) [Example 26-(b), 3-(1,4-dimethyl-1H-benzo[d][1,2,3]triazol-5-yl)-3-(3-(((R)-2-ethyl-2,3-dihydro-[1,4]oxazepino[6,7-c]quinolin-4(5H)-yl)methyl)-4-methylphenyl)-2,2-dimethylpropanoic Acid], in data set [1], the EC (1.5-fold NQO1 activity) is 0.0005 to 0.005 µM. The fold induction at 30 mg/kg in data set [2] is greater than 6. The inhibition at 0.1 µM in data set [3] is no less than 50%. Moreover, the Human metabolic rate entry in data set [4] is “E (metabolic rate≥250 pmol/min/mg protein)”.

`CC[C@@H]1CN(Cc2cc(C(CC(=O)O)c3ccc4c(nnn4C)c3C)ccc2C)Cc2cc3ncccc3cc2O1` (stereo partly drawn) [Example 56-(b), 3-(1,4-dimethyl-1H-benzo[d][1,2,3]triazol-5-yl)-3-(3-(((R)-2-ethyl-2,3-dihydro-[1,4]oxazepino[7,6-g]quinolin-4(5H)-yl)methyl)-4-methylphenyl)propanoic acid]: in data set [1], the EC (1.5-fold NQO1 activity) lay within 0.0005 to 0.005 µM. Moreover, in data set [2], the fold induction at 30 mg/kg fell in the range of 3 to 6. In addition, in data set [3], the inhibition at 0.1 µM was no less than 50%. For the same compound, the Human metabolic rate entry in data set [4] was “E (metabolic rate≥250 pmol/min/mg protein)”.

For `CC[C@@H]1CN(Cc2cc(C(c3ccc4c(nnn4C)c3C)C(C)(C)C(=O)O)ccc2C)Cc2cc3c(cc2O1)OC(C)(C)O3` (stereo partly drawn) [Example 61-(b), 3-(1,4-dimethyl-1H-benzo[d][1,2,3)triazol-5-yl)-3-(3-(((R)-6-ethyl-2,2-dimethyl-6,7-dihydro-(1,3]dioxolo[4′,5′:4,5]benzo[1,2-f][1,4]oxazepin-8(9H)-yl)methyl)-4-methylphenyl)-2,2-dimethylpropanoic Acid], in data set [1], the EC (1.5-fold NQO1 activity) fell in the range of 0.005 to 0.05 µM. In addition, the fold induction at 30 mg/kg in data set [2] fell in the range of 3 to 6. Also, the inhibition at 0.1 µM in data set [3] is no less than 50%. Also, the Human metabolic rate result in data set [4] is reported as “A (metabolic rate<100 pmol/min/mg protein)”.

Consider `CC[C@@H]1CN(Cc2cc(C(c3ccc4c(nnn4C)c3C)C(C)(C)C(=O)O)ccc2C)Cc2cc3ncccc3cc2O1` (stereo partly drawn) [Example 12-(b), 3-(1,4-dimethyl-1H-benzo[d][1,2,3]triazol-5-yl)-3-(3-(((R)-2-ethyl-2,3-dihydro-[1,4]oxazepino[7,6-g]quinolin-4 (5H)-yl)methyl)-4-methylphenyl)-2,2-dimethylpropanoic Acid], for which the EC (1.5-fold NQO1 activity) in data set [1] fell in the range of 0.0005 to 0.005 µM. Moreover, the fold induction at 30 mg/kg in data set [2] is greater than 6. Also, the inhibition at 0.1 µM in data set [3] is no less than 50%. Moreover, the Human metabolic rate entry in data set [4] was “D (200≤metabolic rate<250 pmol/min/me protein)”.

For the compound `CC[C@@H]1CN(Cc2cc(C(c3ccc4c(nnn4C)c3C)C(C)(C)C(=O)O)ccc2C)Cc2cc3c(cc2O1)OC(F)(F)O3` (stereo partly drawn) [Example 1-(b), 3-(1,4-dimethyl-1H-benzo[d][1,2,3]triazol-5-yl)-3-(3-(((R)-6-ethyl-2,2-difluoro-6,7-dihydro-[1,3]dioxolo[4′,5′:4,5]benzo[1,2-f][1,4]oxazepin-8(9H)-yl)methyl)-4-methylphenyl)-2,2-dimethylpropanoic Acid], the EC (1.5-fold NQO1 activity) in data set [1] is 0.0005 to 0.005 µM. For the same compound, the fold induction at 30 mg/kg in data set [2] was 3 to 6. The inhibition at 0.1 µM in data set [3] is no less than 50%. Further, the Human metabolic rate entry in data set [4] is reported as “C (150≤metabolic rate<200 pmol/min/mg protein)”.
